Experimental data from article PMC4702177, “Discovering new mTOR inhibitors for cancer treatment through virtual screening methods and in vitro assays” (Scientific Reports, 2016).

Key:
Assay in all cases: SelectScreen kinase profiling
Assay type in all cases: biochemical
Details in all cases: mean ± SD of triplicate
AKT2 (PKB beta) = AKT2 (PKB beta) (Homo sapiens, UniProt P31751)
From the text: (§1) To characterize the kinase selectivity of compound 17, we profiled its ability to bind to a panel of 24 structurally related kinases using the SelectScreen Kinase Profiling Service (Life Technologies Corporation, Madison, WI).

AKT3 (PKB gamma) = AKT3 (PKB gamma) (Homo sapiens, UniProt Q9Y243)
From the text: as §1

AMPK A1/B1/G1 = AMPK A1/B1/G1 (Homo sapiens, UniProt Q13131)
From the text: as §1

CDK1/cyclin B = CDK1/cyclin B (Homo sapiens, UniProt P06493)
From the text: as §1

DNA-PK = DNA-PK (Homo sapiens, UniProt P78527)
From the text: as §1

FRAP1 (mTOR) = FRAP1 (mTOR) (Homo sapiens, UniProt P42345)
From the text: as §1

IKBKB (IKK beta) = IKBKB (IKK beta) (Homo sapiens, UniProt O14920)
From the text: as §1

MARK1 (MARK) = MARK1 (MARK) (Homo sapiens, UniProt Q9P0L2)
From the text: as §1

PDK1 = PDK1 (Homo sapiens, UniProt O15530)
From the text: as §1

PI4KB (PI4K beta) = PI4KB (PI4K beta) (Homo sapiens, UniProt Q9UBF8)
From the text: as §1

PIK3C2A (PI3K-C2 alpha) = PIK3C2A (PI3K-C2 alpha) (Homo sapiens, UniProt O00443)
From the text: as §1

PIK3C2B (PI3K-C2 beta) = PIK3C2B (PI3K-C2 beta) (Homo sapiens, UniProt O00750)
From the text: as §1

[1] = biological target: PIK3CD/PIK3R1 (p110 delta/p85 alpha) (Homo sapiens, UniProt O00329)
From the text: as §1

PIK3CG (p110 gamma) = PIK3CG (p110 gamma) (Homo sapiens, UniProt P48736)
From the text: as §1

PRKCB1 (PKC beta I) = PRKCB1 (PKC beta I) (Homo sapiens, UniProt P05771)
From the text: as §1

RPS6KB1 (p70S6K) = RPS6KB1 (p70S6K) (Homo sapiens, UniProt P23443)
From the text: as §1

IKBKB (IKK beta), sequence (O14920 whole entry): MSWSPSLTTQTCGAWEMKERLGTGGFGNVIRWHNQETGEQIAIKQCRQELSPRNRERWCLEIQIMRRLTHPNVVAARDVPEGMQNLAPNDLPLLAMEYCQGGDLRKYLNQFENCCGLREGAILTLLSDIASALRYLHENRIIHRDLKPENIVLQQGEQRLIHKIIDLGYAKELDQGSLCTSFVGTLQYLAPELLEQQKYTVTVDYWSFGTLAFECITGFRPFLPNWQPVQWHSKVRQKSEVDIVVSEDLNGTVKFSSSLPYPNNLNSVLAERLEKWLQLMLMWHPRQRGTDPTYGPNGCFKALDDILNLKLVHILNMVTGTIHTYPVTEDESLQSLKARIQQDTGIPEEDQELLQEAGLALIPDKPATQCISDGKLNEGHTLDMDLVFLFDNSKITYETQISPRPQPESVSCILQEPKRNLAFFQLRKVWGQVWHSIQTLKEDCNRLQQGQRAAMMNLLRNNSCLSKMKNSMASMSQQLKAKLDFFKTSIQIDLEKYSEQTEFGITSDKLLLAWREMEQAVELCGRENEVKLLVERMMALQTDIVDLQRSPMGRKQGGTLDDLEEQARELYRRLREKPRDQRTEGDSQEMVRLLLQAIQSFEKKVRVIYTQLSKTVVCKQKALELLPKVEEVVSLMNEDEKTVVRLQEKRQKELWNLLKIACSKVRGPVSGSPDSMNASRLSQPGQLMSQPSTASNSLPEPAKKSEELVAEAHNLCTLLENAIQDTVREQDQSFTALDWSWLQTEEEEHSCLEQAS
PIK3CD/PIK3R1 (p110 delta/p85 alpha), sequence (O00329 whole entry): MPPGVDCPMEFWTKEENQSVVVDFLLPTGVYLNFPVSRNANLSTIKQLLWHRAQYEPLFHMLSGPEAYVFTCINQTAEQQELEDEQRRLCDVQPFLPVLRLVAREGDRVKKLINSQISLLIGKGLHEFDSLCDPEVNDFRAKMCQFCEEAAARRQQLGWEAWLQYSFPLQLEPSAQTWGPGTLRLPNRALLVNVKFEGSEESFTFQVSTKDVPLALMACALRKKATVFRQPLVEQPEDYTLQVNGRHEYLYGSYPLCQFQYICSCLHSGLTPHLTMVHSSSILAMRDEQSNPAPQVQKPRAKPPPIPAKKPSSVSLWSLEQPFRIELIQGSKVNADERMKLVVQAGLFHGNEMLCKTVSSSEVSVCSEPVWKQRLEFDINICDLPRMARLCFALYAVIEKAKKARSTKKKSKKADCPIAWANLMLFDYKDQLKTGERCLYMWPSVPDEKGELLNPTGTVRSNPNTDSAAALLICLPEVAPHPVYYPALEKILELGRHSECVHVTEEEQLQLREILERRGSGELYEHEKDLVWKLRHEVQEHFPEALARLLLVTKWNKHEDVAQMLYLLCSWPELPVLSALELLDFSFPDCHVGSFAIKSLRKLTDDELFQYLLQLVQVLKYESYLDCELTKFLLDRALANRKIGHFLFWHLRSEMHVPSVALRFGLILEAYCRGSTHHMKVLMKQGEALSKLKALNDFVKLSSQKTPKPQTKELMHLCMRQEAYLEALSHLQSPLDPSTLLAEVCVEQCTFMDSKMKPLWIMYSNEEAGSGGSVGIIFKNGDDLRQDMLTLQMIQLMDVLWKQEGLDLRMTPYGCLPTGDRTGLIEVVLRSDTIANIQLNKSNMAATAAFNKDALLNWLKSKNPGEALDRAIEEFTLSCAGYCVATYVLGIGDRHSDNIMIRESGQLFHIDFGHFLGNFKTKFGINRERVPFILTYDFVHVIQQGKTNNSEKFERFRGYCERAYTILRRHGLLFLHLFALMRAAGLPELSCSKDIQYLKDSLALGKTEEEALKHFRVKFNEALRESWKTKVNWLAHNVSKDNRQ
PIK3CD/PIK3R1 (p110 delta/p85 alpha), sequence (P27986 whole entry partner): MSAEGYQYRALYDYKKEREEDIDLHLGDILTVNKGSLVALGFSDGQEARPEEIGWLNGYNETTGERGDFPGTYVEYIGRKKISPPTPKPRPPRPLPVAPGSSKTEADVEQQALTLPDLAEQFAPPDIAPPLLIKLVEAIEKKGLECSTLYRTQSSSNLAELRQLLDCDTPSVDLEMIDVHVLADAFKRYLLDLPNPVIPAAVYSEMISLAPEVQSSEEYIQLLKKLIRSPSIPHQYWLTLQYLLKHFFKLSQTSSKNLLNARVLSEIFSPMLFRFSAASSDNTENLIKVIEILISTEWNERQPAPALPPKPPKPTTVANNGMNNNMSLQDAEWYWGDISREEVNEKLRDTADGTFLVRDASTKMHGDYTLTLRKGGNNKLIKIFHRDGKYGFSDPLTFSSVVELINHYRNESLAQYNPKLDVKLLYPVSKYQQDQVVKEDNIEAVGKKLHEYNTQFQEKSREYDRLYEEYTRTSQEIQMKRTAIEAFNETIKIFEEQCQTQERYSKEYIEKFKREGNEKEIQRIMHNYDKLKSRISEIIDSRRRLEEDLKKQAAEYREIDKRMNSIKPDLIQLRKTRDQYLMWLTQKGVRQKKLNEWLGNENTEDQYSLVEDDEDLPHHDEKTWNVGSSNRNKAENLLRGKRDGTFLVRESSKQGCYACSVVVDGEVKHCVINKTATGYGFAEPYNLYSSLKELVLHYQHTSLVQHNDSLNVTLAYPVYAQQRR
RPS6KB1 (p70S6K), sequence (P23443 whole entry): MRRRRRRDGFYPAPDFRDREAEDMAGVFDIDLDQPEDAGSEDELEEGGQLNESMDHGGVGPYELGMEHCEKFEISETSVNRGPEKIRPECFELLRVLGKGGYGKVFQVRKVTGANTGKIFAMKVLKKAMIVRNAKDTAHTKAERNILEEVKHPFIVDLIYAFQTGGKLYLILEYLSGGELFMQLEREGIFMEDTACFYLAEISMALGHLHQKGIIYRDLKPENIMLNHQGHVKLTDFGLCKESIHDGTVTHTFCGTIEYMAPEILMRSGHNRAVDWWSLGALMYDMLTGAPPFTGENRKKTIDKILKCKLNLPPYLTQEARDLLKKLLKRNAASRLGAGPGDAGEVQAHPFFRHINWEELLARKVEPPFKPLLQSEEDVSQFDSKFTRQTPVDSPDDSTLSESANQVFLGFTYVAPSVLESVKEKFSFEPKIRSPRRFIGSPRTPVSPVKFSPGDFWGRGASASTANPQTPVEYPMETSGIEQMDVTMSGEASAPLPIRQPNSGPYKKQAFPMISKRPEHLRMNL
AKT3 (PKB gamma), sequence (Q9Y243 whole entry): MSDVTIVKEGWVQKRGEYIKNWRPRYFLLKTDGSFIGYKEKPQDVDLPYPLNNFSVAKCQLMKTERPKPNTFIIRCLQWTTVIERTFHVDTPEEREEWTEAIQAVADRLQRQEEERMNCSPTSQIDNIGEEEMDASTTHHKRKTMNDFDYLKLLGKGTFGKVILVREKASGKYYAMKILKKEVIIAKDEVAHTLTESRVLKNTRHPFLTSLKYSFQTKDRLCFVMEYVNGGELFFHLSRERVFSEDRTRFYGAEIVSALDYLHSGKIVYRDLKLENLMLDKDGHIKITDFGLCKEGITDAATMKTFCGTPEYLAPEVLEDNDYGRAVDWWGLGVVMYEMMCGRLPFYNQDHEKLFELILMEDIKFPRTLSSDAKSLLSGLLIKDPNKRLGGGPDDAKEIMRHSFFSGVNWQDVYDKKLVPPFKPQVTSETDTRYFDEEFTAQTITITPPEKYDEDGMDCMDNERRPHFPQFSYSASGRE
PI4KB (PI4K beta), sequence (Q9UBF8 whole entry): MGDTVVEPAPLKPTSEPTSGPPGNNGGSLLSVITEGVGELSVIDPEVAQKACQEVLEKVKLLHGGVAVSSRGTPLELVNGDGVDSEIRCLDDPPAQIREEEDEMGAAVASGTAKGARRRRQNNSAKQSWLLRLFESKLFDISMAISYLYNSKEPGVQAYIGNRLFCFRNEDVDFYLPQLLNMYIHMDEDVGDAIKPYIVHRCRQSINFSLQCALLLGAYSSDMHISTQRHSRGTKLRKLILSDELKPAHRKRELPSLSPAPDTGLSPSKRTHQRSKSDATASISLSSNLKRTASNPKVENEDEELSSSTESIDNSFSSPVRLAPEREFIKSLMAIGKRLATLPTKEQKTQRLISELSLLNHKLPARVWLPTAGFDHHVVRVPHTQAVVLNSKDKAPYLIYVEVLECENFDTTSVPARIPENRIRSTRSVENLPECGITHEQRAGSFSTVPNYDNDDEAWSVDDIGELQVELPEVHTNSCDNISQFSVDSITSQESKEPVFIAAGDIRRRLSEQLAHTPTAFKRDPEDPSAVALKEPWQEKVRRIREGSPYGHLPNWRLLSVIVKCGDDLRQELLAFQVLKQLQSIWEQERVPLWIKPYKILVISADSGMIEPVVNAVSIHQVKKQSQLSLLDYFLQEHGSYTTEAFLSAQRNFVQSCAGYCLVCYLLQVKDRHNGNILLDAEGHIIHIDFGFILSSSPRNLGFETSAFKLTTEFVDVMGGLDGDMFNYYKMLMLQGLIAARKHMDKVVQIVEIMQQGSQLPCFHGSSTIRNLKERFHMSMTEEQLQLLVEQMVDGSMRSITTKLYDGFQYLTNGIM
PDK1, sequence (O15530 whole entry): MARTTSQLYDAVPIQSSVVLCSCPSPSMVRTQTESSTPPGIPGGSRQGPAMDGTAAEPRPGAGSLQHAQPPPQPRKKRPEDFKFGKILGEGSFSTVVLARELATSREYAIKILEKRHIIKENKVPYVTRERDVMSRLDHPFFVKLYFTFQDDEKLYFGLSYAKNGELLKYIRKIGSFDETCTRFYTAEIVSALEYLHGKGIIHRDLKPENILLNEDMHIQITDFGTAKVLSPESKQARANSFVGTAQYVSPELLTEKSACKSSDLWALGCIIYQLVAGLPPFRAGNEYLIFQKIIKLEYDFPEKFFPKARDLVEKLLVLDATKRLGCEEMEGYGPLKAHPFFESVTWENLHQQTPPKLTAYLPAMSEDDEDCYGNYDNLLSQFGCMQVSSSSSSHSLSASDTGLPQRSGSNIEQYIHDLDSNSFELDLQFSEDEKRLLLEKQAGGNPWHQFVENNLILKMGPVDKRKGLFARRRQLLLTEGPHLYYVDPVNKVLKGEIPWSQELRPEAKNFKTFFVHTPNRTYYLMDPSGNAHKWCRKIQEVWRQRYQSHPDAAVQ

## Nc1nn2c(nc(N)c3c(N)n[nH]c32)c1/N=N/c1ccccc1 [Compound 17]
AKT2 (PKB beta)
  inhibition at 10 µM: 33.6 ± 3.23%
AKT3 (PKB gamma)
  inhibition at 10 µM: 11.7 ± 0.37%
AMPK A1/B1/G1
  inhibition at 10 µM: 17 ± 3.47%
CDK1/cyclin B
  inhibition at 10 µM: 3.09 ± 2.31%
DNA-PK
  inhibition at 10 µM: 61.9 ± 6.43%
FRAP1 (mTOR)
  inhibition at 10 µM: 16.9 ± 4.99%
IKBKB (IKK beta)
  inhibition at 10 µM: 11.7 ± 1.62%
MARK1 (MARK)
  inhibition at 10 µM: -12.2 ± 4.24%
PDK1
  inhibition at 10 µM: 3.94 ± 3.24%
PI4KB (PI4K beta)
  inhibition at 10 µM: 31.8 ± 1.18%
PIK3C2A (PI3K-C2 alpha)
  inhibition at 10 µM: 28.6 ± 1.96%
PIK3C2B (PI3K-C2 beta)
  inhibition at 10 µM: 39.3 ± 7.29%
[1]
  inhibition at 10 µM: 41.4 ± 0.63%
PIK3CG (p110 gamma)
  inhibition at 10 µM: 40.9 ± 1.19%
PRKCB1 (PKC beta I)
  inhibition at 10 µM: 9.54 ± 0.09%
RPS6KB1 (p70S6K)
  inhibition at 10 µM: -1.25 ± 1.53%
